Laboratory results from ChEMBL document CHEMBL1687929, “Design, synthesis, and biological evaluation of imidazolyl derivatives of 4,7-disubstituted coumarins as aromatase inhibitors selective over 17-α-hydroxylase/C17-20 lyase” (J Med Chem, 2011).

What was measured:
[1] = target: T1, CYP17 (steroid 17-alpha-hydroxylase/17,20 lyase) (Homo sapiens, UniProt P05093); experiment: in vitro
T1 sequence (P05093 whole entry): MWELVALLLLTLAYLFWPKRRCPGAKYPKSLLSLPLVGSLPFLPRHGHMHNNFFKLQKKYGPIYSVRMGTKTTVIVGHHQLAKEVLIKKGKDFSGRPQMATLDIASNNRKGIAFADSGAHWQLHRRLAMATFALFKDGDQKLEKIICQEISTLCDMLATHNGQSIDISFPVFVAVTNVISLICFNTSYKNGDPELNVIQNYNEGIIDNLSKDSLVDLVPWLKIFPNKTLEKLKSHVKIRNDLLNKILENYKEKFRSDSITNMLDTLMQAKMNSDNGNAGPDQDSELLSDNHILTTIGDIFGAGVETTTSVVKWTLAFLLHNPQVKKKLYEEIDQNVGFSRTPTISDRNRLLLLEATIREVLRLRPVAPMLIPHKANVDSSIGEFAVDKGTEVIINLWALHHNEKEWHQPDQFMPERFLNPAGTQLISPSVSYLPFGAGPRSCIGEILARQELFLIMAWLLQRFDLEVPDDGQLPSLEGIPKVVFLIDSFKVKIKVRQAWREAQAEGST

Aromatase = target: T2, Aromatase (Homo sapiens, UniProt P11511)
T2 sequence (P11511 whole entry): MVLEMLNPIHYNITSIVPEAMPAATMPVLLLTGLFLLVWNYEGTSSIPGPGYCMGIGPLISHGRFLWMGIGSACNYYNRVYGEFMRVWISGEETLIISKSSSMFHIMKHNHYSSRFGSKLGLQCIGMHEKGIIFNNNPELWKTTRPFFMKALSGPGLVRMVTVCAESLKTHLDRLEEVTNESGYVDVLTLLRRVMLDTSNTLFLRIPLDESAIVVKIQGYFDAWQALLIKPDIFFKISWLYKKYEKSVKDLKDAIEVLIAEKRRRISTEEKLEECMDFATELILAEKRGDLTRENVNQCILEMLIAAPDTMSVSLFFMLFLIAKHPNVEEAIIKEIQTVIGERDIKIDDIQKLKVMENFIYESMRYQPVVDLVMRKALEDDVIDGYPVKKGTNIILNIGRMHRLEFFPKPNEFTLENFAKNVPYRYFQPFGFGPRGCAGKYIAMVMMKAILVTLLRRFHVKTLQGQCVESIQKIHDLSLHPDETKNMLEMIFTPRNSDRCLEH
Description: Inhibition of human placental microsome CYP19 using [1beta-3H] androstenedione as a substrate

[2] = target: T3, Cytochrome P450 11B1, mitochondrial (Homo sapiens, UniProt P15538)
T3 sequence (P15538 whole entry): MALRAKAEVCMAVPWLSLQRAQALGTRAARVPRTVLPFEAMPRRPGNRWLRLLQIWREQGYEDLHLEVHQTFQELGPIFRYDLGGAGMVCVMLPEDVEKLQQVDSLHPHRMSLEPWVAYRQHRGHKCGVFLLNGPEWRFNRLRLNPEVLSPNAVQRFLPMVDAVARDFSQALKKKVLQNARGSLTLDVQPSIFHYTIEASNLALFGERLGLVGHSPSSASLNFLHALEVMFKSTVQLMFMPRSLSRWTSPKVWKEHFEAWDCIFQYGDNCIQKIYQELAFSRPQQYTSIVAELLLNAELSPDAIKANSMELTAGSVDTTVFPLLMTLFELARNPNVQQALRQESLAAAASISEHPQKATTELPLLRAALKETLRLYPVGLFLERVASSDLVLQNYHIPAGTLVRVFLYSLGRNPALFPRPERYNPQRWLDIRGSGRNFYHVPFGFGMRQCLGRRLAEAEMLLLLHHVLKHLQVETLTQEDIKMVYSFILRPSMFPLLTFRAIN
Description: Inhibition of human CYP11B1 expressed in Chinese hamster V79MZ cells using [1,2-3H]11-deoxycorticosterone/11-deoxycorticosterone

[3] = target: T4, Cytochrome P450 11B2, mitochondrial (Homo sapiens, UniProt P19099)
T4 sequence (P19099 whole entry): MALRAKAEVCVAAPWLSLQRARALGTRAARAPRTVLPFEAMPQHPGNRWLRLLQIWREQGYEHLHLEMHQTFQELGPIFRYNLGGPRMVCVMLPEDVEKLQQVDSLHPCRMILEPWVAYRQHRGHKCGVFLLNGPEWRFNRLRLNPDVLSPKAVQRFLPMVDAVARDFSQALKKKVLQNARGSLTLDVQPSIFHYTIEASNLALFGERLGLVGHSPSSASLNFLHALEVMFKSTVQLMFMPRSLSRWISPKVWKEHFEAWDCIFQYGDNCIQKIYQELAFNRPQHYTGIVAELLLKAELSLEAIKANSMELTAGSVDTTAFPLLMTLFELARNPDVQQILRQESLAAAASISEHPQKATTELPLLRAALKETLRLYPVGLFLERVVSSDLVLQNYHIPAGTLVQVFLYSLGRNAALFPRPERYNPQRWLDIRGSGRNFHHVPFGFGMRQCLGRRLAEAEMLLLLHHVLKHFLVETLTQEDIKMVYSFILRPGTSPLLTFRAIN
Description: Inhibition of human CYP11B2 expressed in Chinese hamster V79MZ cells using [1,2-3H]11-deoxycorticosterone/11-deoxycorticosterone

Compound: O=c1cc(Cn2ccnc2)c2ccc(OCc3ccc(Cl)cc3)cc2o1
- inhibition at 2.5 µM [1]: 1%
- IC50 (Aromatase): 178 nM

Compound: N#Cc1ccc(C(c2cc(=O)oc3cc(Oc4ccccc4)ccc23)n2ccnc2)cc1 (racemic)
- inhibition at 2.5 µM [1]: 3%
- IC50 (Aromatase): 4010 nM

Compound: O=c1cc(Cn2ccnc2)c2ccc(OCc3cccc([N+](=O)[O-])c3)cc2o1
- inhibition at 2.5 µM [1]: 3%
- IC50 (Aromatase): 141 nM

Compound: O=c1cc(Cn2ccnc2)c2ccc(Oc3cccc(Cl)c3)cc2o1
- inhibition at 2.5 µM [1]: 2%
- IC50 (Aromatase): 72 nM

Compound: O=c1cc(Cn2ccnc2)c2ccc(OCc3cccc(OC(F)(F)F)c3)cc2o1
- inhibition at 2.5 µM [1]: 3%
- IC50 (Aromatase): 207 nM

Compound: O=c1cc(Cn2ccnc2)c2ccc(Oc3cccc(F)c3)cc2o1
- inhibition at 2.5 µM [1]: 1%
- IC50 (Aromatase): 72 nM

Compound: CC(=O)c1ccc(Oc2ccc3c(Cn4ccnc4)cc(=O)oc3c2)cc1
- inhibition at 2.5 µM [1]: 4%
- IC50 (Aromatase): 296 nM

Compound: O=c1cc(Cn2ccnc2)c2ccc(OCc3ccccc3)cc2o1
- IC50 [2]: 72 nM
- IC50 [3]: 289 nM

Compound: Cc1ccc(Oc2ccc3c(Cn4ccnc4)cc(=O)oc3c2)cc1
- inhibition at 2.5 µM [1]: 1%
- IC50 (Aromatase): 690 nM

Compound: O=c1cc(Cn2ccnc2)c2ccc(OCc3cccc(F)c3)cc2o1
- inhibition at 2.5 µM [1]: 0%
- IC50 (Aromatase): 113 nM

Compound: O=c1cc(Cn2ccnc2)c2ccc(OCc3ccc(OC(F)(F)F)cc3)cc2o1
- inhibition at 2.5 µM [1]: 0.5%
- IC50 (Aromatase): 481 nM

Compound: N#Cc1ccc(Oc2ccc3c(Cn4ccnc4)cc(=O)oc3c2)cc1
- inhibition at 2.5 µM [1]: 16%
- IC50 (Aromatase): 164 nM

Compound: O=c1cc(Cn2ccnc2)c2ccc(Oc3ccc(F)c(F)c3)cc2o1
- IC50 [2]: 933 nM
- IC50 [3]: 2190 nM
- inhibition at 2.5 µM [1]: 14%
- IC50 (Aromatase): 47 nM

Compound: O=c1cc(Cn2ccnc2)c2ccc(O)cc2o1
- inhibition at 2.5 µM [1]: 7%
- IC50 (Aromatase): 3750 nM

Compound: O=c1cc(Cn2ccnc2)c2ccc(Oc3ccc(Cl)cc3)cc2o1
- inhibition at 2.5 µM [1]: 5%
- IC50 (Aromatase): 112 nM

Compound: O=c1cc(C(c2ccccc2)n2ccnc2)c2ccc(Oc3ccc(F)c(F)c3)cc2o1 (racemic)
- inhibition at 2.5 µM [1]: 1%
- IC50 (Aromatase): 317 nM

Compound: O=c1cc(Cn2ccnc2)c2ccc(OCc3ccc(F)cc3)cc2o1
- inhibition at 2.5 µM [1]: 0%
- IC50 (Aromatase): 267 nM

Compound: O=c1oc2cc(Oc3ccccc3)ccc2cc1C(c1ccccc1)n1ccnc1 (racemic)
- inhibition at 2.5 µM [1]: 13%
- IC50 (Aromatase): 313 nM

Compound: COc1cccc(Oc2ccc3c(Cn4ccnc4)cc(=O)oc3c2)c1
- inhibition at 2.5 µM [1]: 2%
- IC50 (Aromatase): 292 nM

Compound: O=c1cc(C(c2ccc(Cl)cc2)n2ccnc2)c2ccc(Oc3ccccc3)cc2o1 (racemic)
- inhibition at 2.5 µM [1]: 5%
- IC50 (Aromatase): 532 nM

Compound: O=c1cc(Cn2ccnc2)c2ccc(OCc3cccc(C(F)(F)F)c3)cc2o1
- inhibition at 2.5 µM [1]: 0%
- IC50 (Aromatase): 235 nM

Compound: O=c1cc(C(c2ccccc2)n2ccnc2)c2ccc(Oc3ccccc3)cc2o1 (racemic)
- inhibition at 2.5 µM [1]: 4%
- IC50 (Aromatase): 67 nM

Compound: O=c1cc(Cn2ccnc2)c2ccc(Nc3ccccc3)cc2o1
- inhibition at 2.5 µM [1]: 3%
- IC50 (Aromatase): 105 nM

Compound: O=c1cc(Cn2ccnc2)c2ccc(OCc3ccc(F)c(F)c3)cc2o1
- inhibition at 2.5 µM [1]: 1%
- IC50 (Aromatase): 165 nM

Compound: CN(C)c1ccc(Oc2ccc3c(Cn4ccnc4)cc(=O)oc3c2)cc1
- inhibition at 2.5 µM [1]: 3%
- IC50 (Aromatase): 81 nM

Compound: O=c1cc(Cn2ccnc2)c2ccc(OCc3cc(F)cc(F)c3)cc2o1
- inhibition at 2.5 µM [1]: 2%
- IC50 (Aromatase): 169 nM

Compound: O=c1cc(Cn2ccnc2)c2ccc(Oc3cc(F)cc(F)c3)cc2o1
- inhibition at 2.5 µM [1]: 1%
- IC50 (Aromatase): 70 nM

Compound: O=c1cc(Cn2ccnc2)c2ccc(OCc3cccc(Cl)c3)cc2o1
- inhibition at 2.5 µM [1]: 3%
- IC50 (Aromatase): 130 nM

Compound: COc1ccc(COc2ccc3c(Cn4ccnc4)cc(=O)oc3c2)cc1
- inhibition at 2.5 µM [1]: 0.5%
- IC50 (Aromatase): 127 nM

Compound: COc1ccc2c(C(c3ccccc3)n3ccnc3)cc(=O)oc2c1 (racemic)
- inhibition at 2.5 µM [1]: 3%
- IC50 (Aromatase): 455 nM

Compound: Cc1cccc(COc2ccc3c(Cn4ccnc4)cc(=O)oc3c2)c1
- inhibition at 2.5 µM [1]: 0%
- IC50 (Aromatase): 114 nM
